Laboratory results reported in PubChem BioAssay (NCI).
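Tested at 5 concentrations; 48 h exposure; 96-well plates; endpoints linearly interpolated, else capped at highest concentration. Abbreviation: GI50, concentration required for 50% inhibition of growth. TGI: total growth inhibition.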

Legend:
Test in all cases: DTP human tumour cell line panel, 48 h
[1] = tested on: BT-549 breast
[2] = tested on: UACC-62 melanoma
[3] = tested on: LOX IMVI melanoma
[4] = tested on: A498 renal
[5] = tested on: SW-620 colon
[6] = tested on: SR leukemia
[7] = tested on: T-47D breast
[8] = tested on: HS 578T breast
[9] = tested on: SF-268 CNS
[10] = tested on: SF-539 CNS
[11] = tested on: SNB-75 CNS
[12] = tested on: UO-31 renal
[13] = tested on: UACC-257 melanoma
[14] = tested on: HCT-116 colon
[15] = tested on: OVCAR-8 ovarian
[16] = tested on: NCI-H23 lung
[17] = tested on: NCI/ADR-RES ovarian
[18] = tested on: K-562 leukemia
[19] = tested on: DU-145 prostate
[20] = tested on: SNB-19 CNS
[21] = tested on: HL-60(TB) leukemia
[22] = tested on: OVCAR-5 ovarian
[23] = tested on: MALME-3M melanoma
[24] = tested on: IGROV1 ovarian
[25] = tested on: MCF7 breast
[26] = tested on: SN12C renal
[27] = tested on: SK-MEL-28 melanoma
[28] = tested on: PC-3 prostate
[29] = tested on: HT29 colon
[30] = tested on: TK-10 renal
[31] = tested on: OVCAR-4 ovarian
[32] = tested on: OVCAR-3 ovarian
[33] = tested on: ACHN renal
[34] = tested on: SF-295 CNS
[35] = tested on: SK-MEL-2 melanoma
[36] = tested on: SK-OV-3 ovarian
[37] = tested on: HCC-2998 colon
[38] = tested on: MDA-MB-435
[39] = tested on: HCT-15 colon
[40] = tested on: MDA-MB-231 breast
[41] = tested on: 786-0 renal
[42] = tested on: NCI-H522 lung
[43] = tested on: SK-MEL-5 melanoma
[44] = tested on: COLO 205 colon
[45] = tested on: NCI-H460 lung
[46] = tested on: U251 CNS
[47] = tested on: CCRF-CEM leukemia
[48] = tested on: RPMI-8226 leukemia
[49] = tested on: MOLT-4 leukemia
[50] = tested on: CAKI-1 renal
[51] = tested on: EKVX NSCLC
[52] = tested on: NCI-H226 lung
[53] = tested on: KM12 colon
[54] = tested on: HOP-62 NSCLC
[55] = tested on: RXF 393 renal
[56] = tested on: A549 NSCLC
[57] = tested on: HOP-92 NSCLC

Cn1cnc2nc(Cl)nc(Cl)c21 gave a GI50 [1] of 10.7 µM, a TGI [1] of 66.6 µM and a GI50 [2] of 1.79 µM. The TGI [2] was 19.7 µM, the GI50 [3] was 0.406 µM and the TGI [3] was 16.8 µM. It also gave a GI50 [4] of 2.2 µM, a TGI [4] of 6.77 µM and a GI50 [5] of 0.469 µM. For the same compound, the TGI [5] was 15.5 µM, the GI50 [6] was 0.599 µM and the TGI [6] was 28.7 µM. It also gave a GI50 [7] of 0.489 µM, a TGI [7] of 26.8 µM and a GI50 [8] of 2.28 µM. The TGI [8] was 7.53 µM, the GI50 [9] was 3.22 µM and the TGI [9] was 38.2 µM. It also gave a GI50 [10] of 0.924 µM, a TGI [10] of 5.53 µM and a GI50 [11] of 2.48 µM. It also gave a TGI [11] of 13.4 µM, a GI50 [12] of 9.96 µM and a TGI [12] greater than 100 µM. For the same compound, the GI50 [13] was 7.84 µM, the TGI [13] was 24.8 µM and the GI50 [14] was 0.323 µM. For the same compound, the TGI [14] was 13.3 µM, the GI50 [15] was 3.5 µM and the TGI [15] was 26.2 µM. It also gave a GI50 [16] of 10.4 µM, a TGI [16] of 34.2 µM and a GI50 [17] of 2.76 µM. The TGI [17] was 13 µM, the GI50 [18] was 0.713 µM and the TGI [18] was 94.7 µM. It also gave a GI50 [19] of 1.65 µM, a TGI [19] of 4.87 µM and a GI50 [20] of 5.79 µM. The TGI [20] was 57.8 µM, the GI50 [21] was 3.16 µM and the TGI [21] was 8.08 µM. It also gave a GI50 [22] of 3.56 µM, a TGI [22] of 19.9 µM and a GI50 [23] of 13.6 µM. It also gave a TGI [23] of 50.3 µM, a GI50 [24] of 2.47 µM and a TGI [24] of 37.7 µM. For the same compound, the GI50 [25] was 0.335 µM, the TGI [25] was 13.2 µM and the GI50 [26] was 3.37 µM. For the same compound, the TGI [26] was 24.1 µM, the GI50 [27] was 4.35 µM and the TGI [27] was 16.5 µM. The GI50 [28] was 0.594 µM, the TGI [28] was 12.8 µM and the GI50 [29] was 0.365 µM. For the same compound, the TGI [29] was 12.6 µM, the GI50 [30] was 3.84 µM and the TGI [30] was 26.2 µM. For the same compound, the GI50 [31] was 4.7 µM, the TGI [31] was 17.6 µM and the GI50 [32] was 1.84 µM. For the same compound, the TGI [32] was 6.12 µM, the GI50 [33] was 1.44 µM and the TGI [33] was 18.5 µM. For the same compound, the GI50 [34] was 3.57 µM, the TGI [34] was greater than 100 µM and the GI50 [35] was 2.7 µM. The TGI [35] was 10.2 µM, the GI50 [36] was 4.32 µM and the TGI [36] was greater than 100 µM. The GI50 [37] was 3.85 µM, the TGI [37] was 15.6 µM and the GI50 [38] was 0.445 µM. It also gave a TGI [38] of 13.7 µM, a GI50 [39] of 2.58 µM and a TGI [39] of 20.7 µM. The GI50 [40] was 4.26 µM, the TGI [40] was 33.2 µM and the GI50 [41] was 1.01 µM. The TGI [41] was greater than 100 µM, the GI50 [42] was 1.17 µM and the TGI [42] was 3.26 µM. It also gave a GI50 [43] of 2.7 µM, a TGI [43] of 10.8 µM and a GI50 [44] of 2.18 µM. For the same compound, the TGI [44] was 5.27 µM, the GI50 [45] was 2.04 µM and the TGI [45] was 6.12 µM. For the same compound, the GI50 [46] was 3.27 µM, the TGI [46] was 11.7 µM and the GI50 [47] was 0.84 µM. It also gave a TGI [47] of 22.1 µM, a GI50 [48] of 0.591 µM and a TGI [48] of 26.4 µM. For the same compound, the GI50 [49] was 5.26 µM, the TGI [49] was 36.2 µM and the GI50 [50] was 1.08 µM. It also gave a TGI [50] of 3.26 µM, a GI50 [51] of 13.6 µM and a TGI [51] of 34.8 µM. The GI50 [52] was 12.4 µM, the TGI [52] was 31.4 µM and the GI50 [53] was 0.43 µM. For the same compound, the TGI [53] was 2.46 µM, the GI50 [54] was 2.55 µM and the TGI [54] was greater than 100 µM. It also gave a GI50 [55] of 2.39 µM, a TGI [55] of 7.09 µM and a GI50 [56] of 3.68 µM. It also gave a TGI [56] greater than 100 µM, a GI50 [57] of 2.09 µM and a TGI [57] of 10.5 µM.
